Experimental data reported in US20240239755A1, “SUBSTITUTED PYRIDAZINONES, SALTS OR N-OXIDES THEREOF AND THEIR USE AS HERBICIDALLY ACTIVE SUBSTANCES” (Bayer Aktiengesellschaft, priority 2021, published 2024).

Tests used:
Assay type in all cases: in vivo
Lolium rigidum (LOLRI) [1] = assay: Herbicidal pre-emergence action, 1280 g/ha (Table A5); conditions: visual grading after ca. 3 weeks vs untreated controls
Procedure, shortened: (§1)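 Seeds are sown and covered with sandy loam soil, then the soil surface is treated with compound suspension or emulsion (0.5% additive, 600 L water/ha). Plants grow in a greenhouse under optimum conditions, and damage is rated visually at ca. 3 weeks against untreated controls.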

Poa annua (POAAN) = assay: Herbicidal pre-emergence action, 1280 g/ha (Table A7); conditions: visual grading after ca. 3 weeks vs untreated controls
Excerpt: (§2) Seeds of mono- and dicotyledonous weed plants were sown in plastic pots (double sowings with one species of mono- and one species of dicotyledonous weed plants per pot), in sandy loam, and covered with soil. The compounds according to the invention, formulated in the form of wettable powders (WP) or as emulsifiable concentrates (EC), were applied to the surface of the covering soil as an aqueous suspension or as an emulsion, with the addition of 0.5% of an additive, at an application rate of 600 litres of water per hectare (converted). Following treatment, the pots were placed in a greenhouse and kept under optimum growth conditions for the test plants. The visual grading of the damage to the test plants was carried out after ca. 3 weeks in comparison to untreated controls (herbicidal effect in percent (%): 100% effect=plants have died, 0% effect=as control plants). Tables A1 to A11 below, show the effects of selected compounds of the general formula (I) according to Table 1 on various harmful plants and an application rate corresponding to 1280 g/ha obtained by the experimental procedure mentioned above.

Stellaria media (STEME) [2] = assay: Herbicidal pre-emergence action, 1280 g/ha (Table A9); conditions: visual grading after ca. 3 weeks vs untreated controls
Procedure, shortened: as §1

[3] = test system: Amaranthus retroflexus (AMARE); assay: Herbicidal pre-emergence action, 1280 g/ha (Table A11); conditions: visual grading after ca. 3 weeks vs untreated controls
Procedure, shortened: as §1

[4] = test system: Abutilon theophrasti (ABUTH); assay: Herbicidal post-emergence action, 1280 g/ha (Table B1); conditions: visual assessment after ca. 3 weeks vs untreated controls
Procedure, shortened: (§3)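 Post-emergence greenhouse pot test: weeds in sandy loam sprayed at single-leaf stage, 2–3 weeks after sowing, with WP or EC formulations plus 0.5% additive at 600 L water/ha. Effect scored visually ca. 3 weeks later versus untreated controls, 0% = as control, 100% = plants dead.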

Kochia scoparia (KCHSC) [5] = assay: Herbicidal post-emergence action, 1280 g/ha (Table B4); conditions: visual assessment after ca. 3 weeks vs untreated controls
Procedure, shortened: as §3

Lolium rigidum (LOLRI) [6] = assay: Herbicidal post-emergence action, 1280 g/ha (Table B5); conditions: visual assessment after ca. 3 weeks vs untreated controls
Procedure, shortened: as §3

[7] = test system: Matricaria inodora (MATIN); assay: Herbicidal post-emergence action, 1280 g/ha (Table B6); conditions: visual assessment after ca. 3 weeks vs untreated controls
Procedure, shortened: as §3

Stellaria media (STEME) [8] = assay: Herbicidal post-emergence action, 1280 g/ha (Table B9); conditions: visual assessment after ca. 3 weeks vs untreated controls
Procedure, shortened: as §3

Veronica persica (VERPE) [9] = assay: Herbicidal post-emergence action, 1280 g/ha, VERPE; conditions: visual grading vs untreated controls
Procedure, shortened: (§4)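 Pot-grown weeds in sandy loam sprayed post-emergence at the single-leaf stage, 2–3 weeks after sowing, with WP or EC formulations plus 0.5% additive in 600 L water/ha at 1280 g/ha. After ca. 3 weeks in the greenhouse, damage scored visually as % effect versus untreated controls (100% = plants dead).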

[10] = test system: Amaranthus retroflexus (AMARE); assay: Herbicidal post-emergence action, 1280 g/ha, AMARE; conditions: visual grading vs untreated controls
Procedure, shortened: as §4

[11] = test system: Amaranthus retroflexus (AMARE); assay: Herbicidal pre-emergence action, 320 g/ha, AMARE; conditions: visual grading after ca. 3 weeks
Excerpt: as §2, with “plants).” for “plants). Tables A1 to A11 below, show the effects of selected compounds of the general formula (I) according to Table 1 on various harmful plants and an application rate corresponding to 1280 g/ha obtained by the experimental procedure mentioned above.”
Tables C1 to C6 below, show the effects of selected compounds of the general formula (I) according to Table 1 on various harmful plants using an application rate corresponding to 320 g/ha obtained by the experimental procedure mentioned above.

Kochia scoparia (KCHSC) [12] = assay: Herbicidal post-emergence action, 320 g/ha, KCHSC; conditions: visual grading after ca. 3 weeks
Procedure, shortened: (§5)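 Test compounds, formulated as wettable powders or emulsifiable concentrates with 0.5% additive, are sprayed onto green parts of single-leaf-stage weeds at a water volume of 600 L/ha. Percent effect is judged by eye after roughly three weeks under optimum greenhouse conditions.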

Stellaria media (STEME) [13] = assay: Herbicidal post-emergence action, 320 g/ha, STEME; conditions: visual grading after ca. 3 weeks
Procedure, shortened: as §5

Veronica persica (VERPE) [14] = assay: Herbicidal post-emergence action, 320 g/ha, VERPE; conditions: visual grading after ca. 3 weeks
Procedure, shortened: as §5

[15] = test system: Amaranthus retroflexus (AMARE); assay: Herbicidal post-emergence action, 320 g/ha, AMARE; conditions: visual grading after ca. 3 weeks
Procedure, shortened: as §5

[16] = test system: Abutilon theophrasti (ABUTH); assay: Herbicidal pre-emergence action, 1280 g/ha (Table A1); conditions: visual grading after ca. 3 weeks vs untreated controls
Procedure, shortened: as §1

[17] = test system: Matricaria inodora (MATIN); assay: Herbicidal pre-emergence action, 1280 g/ha (Table A6); conditions: visual grading after ca. 3 weeks vs untreated controls
Procedure, shortened: as §1

Setaria viridis (SETVI) [18] = assay: Herbicidal pre-emergence action, 1280 g/ha (Table A8); conditions: visual grading after ca. 3 weeks vs untreated controls
Excerpt: as §2

Setaria viridis (SETVI) [19] = assay: Herbicidal post-emergence action, 1280 g/ha (Table B8); conditions: visual assessment after ca. 3 weeks vs untreated controls
Excerpt: (§6) Seeds of mono- and dicotyledonous weed plants were sown in plastic pots (double sowings with one species of mono- and one species of dicotyledonous weed plants per pot), in sandy loam, covered with soil and grown under controlled growth conditions. 2 to 3 weeks after sowing, the test plants were sprayed in the single-leaf stage. The compounds according to the invention, formulated in the form of wettable powders (WP) or as emulsifiable concentrates (EC), were sprayed onto the green plant parts as an aqueous suspension or as an emulsion, with the addition of 0.5% of an additive, at an application rate of 600 litres of water per hectare (converted). The test plants were placed in the greenhouse for ca. 3 weeks under optimum growth conditions, and then the effect of the preparations was assessed visually in comparison with untreated controls (herbicidal effect in percent (%): 100% effect=plants have died, 0% effect=as control plants). Tables B1 to B11 below, show the effects of selected compounds of the general formula (I) according to Table 1 on various harmful plants using an application rate corresponding to 1280 g/ha obtained by the experimental procedure mentioned above.

Lolium rigidum (LOLRI) [20] = assay: Herbicidal pre-emergence action, 320 g/ha (Table C2); conditions: visual grading after ca. 3 weeks vs untreated controls
Procedure, shortened: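 Applied pre-emergence to the surface of soil covering weed seeds sown in sandy loam, as WP or EC formulations in water with 0.5% additive at 600 L/ha. Greenhouse-grown; damage graded visually at ca. 3 weeks as percent of untreated controls (100% = plants died).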

Stellaria media (STEME) [21] = assay: Herbicidal pre-emergence action, 320 g/ha, STEME; conditions: visual grading after ca. 3 weeks
Procedure, shortened: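 Weed seeds sown in sandy loam pots; WP or EC formulations applied pre-emergence to the covering soil surface at 320 g/ha with 0.5% additive in 600 L water/ha. Greenhouse growth; visual damage scored after ca. 3 weeks versus untreated controls (100% = plants died, 0% = as control).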

[22] = test system: Abutilon theophrasti (ABUTH); assay: Herbicidal post-emergence action, 320 g/ha, ABUTH; conditions: visual grading after ca. 3 weeks
Procedure, shortened: as §5

Lolium rigidum (LOLRI) [23] = assay: Herbicidal post-emergence action, 320 g/ha, LOLRI; conditions: visual grading after ca. 3 weeks
Excerpt: as §6, with “plants).” for “plants). Tables B1 to B11 below, show the effects of selected compounds of the general formula (I) according to Table 1 on various harmful plants using an application rate corresponding to 1280 g/ha obtained by the experimental procedure mentioned above.”
Tables D1 to D8 below, show the effects of selected compounds of the general formula (I) according to Table 1 on various harmful plants using an application rate corresponding to 320 g/ha obtained by the experimental procedure mentioned above.

[24] = test system: Matricaria inodora (MATIN); assay: Herbicidal post-emergence action, 320 g/ha, MATIN; conditions: visual grading after ca. 3 weeks
Procedure, shortened: as §5

Kochia scoparia (KCHSC) [25] = assay: Herbicidal pre-emergence action, 1280 g/ha (Table A4); conditions: visual grading after ca. 3 weeks vs untreated controls
Procedure, shortened: as §1

| SMILES | herbicidal effect LOLRI (Lolium rigidum (LOLRI) [1]) [%] | herbicidal effect STEME (Stellaria media (STEME) [2]) [%] | herbicidal effect AMARE [3] [%] | herbicidal effect ABUTH [4] [%] | herbicidal effect KCHSC (Kochia scoparia (KCHSC) [5]) [%] | herbicidal effect LOLRI (Lolium rigidum (LOLRI) [6]) [%] | herbicidal effect MATIN [7] [%] | herbicidal effect STEME (Stellaria media (STEME) [8]) [%] | herbicidal effect VERPE (Veronica persica (VERPE) [9]) [%] | herbicidal effect AMARE [10] [%] | herbicidal effect AMARE [11] [%] | herbicidal effect KCHSC (Kochia scoparia (KCHSC) [12]) [%] | herbicidal effect STEME (Stellaria media (STEME) [13]) [%] | herbicidal effect VERPE (Veronica persica (VERPE) [14]) [%] | herbicidal effect AMARE [15] [%] | herbicidal effect MATIN [17] [%] | herbicidal effect SETVI (Setaria viridis (SETVI) [19]) [%] | herbicidal effect LOLRI (Lolium rigidum (LOLRI) [20]) [%] | herbicidal effect ABUTH [22] [%] | herbicidal effect MATIN [24] [%] | other results |
| --- | --- | --- | --- | --- | --- | --- | --- | --- | --- | --- | --- | --- | --- | --- | --- | --- | --- | --- | --- | --- | --- |
| Cc1nn(C)c(=O)c(Oc2ccccc2Cl)c1O [Example I-003] | 100 | 100 | 90 | 90 | 100 | 90 | 100 | 100 | 100 | 100 | 90 | 90 | 90 | 100 | 90 | – | – | – | – | – | herbicidal effect POAAN (Poa annua (POAAN)): 90% |
| CCOC(=O)Oc1c(C)nn(C)c(=O)c1Oc1cc(F)ccc1C1CC1 [Example I-045] | 100 | 100 | 100 | 100 | 90 | 100 | 100 | 100 | 100 | 100 | – | 90 | 90 | 100 | 90 | 90 | 90 | 90 | 100 | 90 | herbicidal effect ABUTH [16]: 90%; herbicidal effect SETVI (Setaria viridis (SETVI) [18]): 90%; herbicidal effect STEME (Stellaria media (STEME) [21]): 90%; herbicidal effect LOLRI (Lolium rigidum (LOLRI) [23]): 100% |
| CCOC(=O)Oc1c(C)nn(C)c(=O)c1Oc1ccc(Cl)cc1C1CC1 [Example I-036] | 90 | 100 | – | 90 | 90 | 90 | 90 | 90 | 90 | 100 | – | 90 | – | – | 90 | 100 | 90 | – | 90 | – | – |
| CCOC(=O)Oc1c(C)nn(C)c(=O)c1Oc1cc(F)c(F)cc1Br [Example I-093] | – | – | 90 | 90 | – | – | 90 | 90 | 90 | 100 | – | – | – | – | – | 90 | 90 | – | – | 90 | herbicidal effect KCHSC (Kochia scoparia (KCHSC) [25]): 90% |
| Cc1nn(C)c(=O)c(Oc2ccc(F)cc2C2CC2)c1O [Example I-033] | 100 | 90 | 90 | 90 | 90 | – | 90 | 90 | 90 | 100 | 90 | – | – | – | 90 | – | – | 100 | 90 | – | – |
